Key:
glucan synthase [1] = target: T1, glucan synthase (Saccharomyces cerevisiae, UniProt P38631); assay: β(1,3) glucan synthase assay, S. cerevisiae PM503 permeabilized cells or membrane preparation (IC50); assay type: biochemical
T1 construct: glucan synthase sources (2 μL permeabilized PM503 cells, or 3 μL membrane preparations from either PM503, BWP17, or ND158); endogenous in cells; host or cells: S. cerevisiae strain PM503, permeabilized cells or 100,000 g membrane fraction
Method: (§1) β(1,3) Glucan Synthase Assay:
1. Preparation of Permeabilized Saccharomyces cerevisiae Cells.
Permeabilization of yeast cells was performed according to Crotti et al. (Analytical Biochemistry, 292, 8-16, 2001) with some modifications. A 10 ml-starter culture of the S. cerevisiae strain in YPD medium (1% yeast extract, 2% bacto-peptone, 2% dextrose) with OD600=3-4 was used to inoculate 1 liter of YPD. The culture was grown at 30° C. until […]. Cells were collected by centrifugation (5,300 g for 15 min at 4° C.) and resuspended in buffer (40 mM EDTA, 100 mM β-mercaptoethanol) at 1 g of cell pellet/3.5 ml buffer. The cell suspension was shaken for 30 min at 30° C., followed by centrifugation at 12,000 g for 10 min at 4° C. The cell pellet was washed with 5 ml 0.8 M sorbitol and resuspended in 6.8 ml of 2.9 mM citric acid, 11.3 mM dibasic sodium phosphate, 1 mM EDTA, 0.8 M sorbitol, with constant shaking at 30)C for 30 min. After centrifugation at 12,000 g for […] at 4° C., the pellet was resuspended in 31.3 ml 50 mM Tris-HCl, pH 7.0, and incubated on ice for 5 min. The mixture was then centrifuged at 12,000 g for 10 min at 4 AC, and the pellet was resuspended in 1 ml of 50 mM Tris-HCl and 33% glycerol, pH 7.5. The permeabilized cell preparation was stored at […] in aliquots.
(§2) 2. Preparation of Membrane Fraction of Yeast Cells
(§3) The protocol was modified from Douglas et al. (Journal of Bacteriology, 176, 5686-5696, 1994). For the preparation of S. cerevisiae and C. albicans membrane fractions, 1 liter of YPD supplemented with 0.02 mg/mL adenine and 0.08 mg/mL uracil was inoculated with 10 mL starter culture of PM503 (OD600=4) or the C. albicans strain BWP17 (OD600=12) in the same medium and grown at 30° C. until OD600 reached about 1. A. fumigatus (stain ND158) membranes were prepared by first preparing a spore suspension from agar slants by adding 6 mL of sterile saline, 0.1% Tween-20 solution to each slant, and resuspending by pipetting and scraping. The spore suspensions were used to inoculate two 200 mL flasks containing Sabouraud dextrose broth media. Cultures were incubated at 37° C., 250 rpm for ˜8 hrs. All cells, S. cerevisiae, C. albicans or A. fumigatus were harvested by centrifugation at 5,300 g at 4° C. for 40 minutes. After washing with 100 mL of breakage buffer (0.1 M KPi, pH 7.0, 1 mM EDTA, 1 mM DTT), the cell pellet was resuspended in 50 ml ice-cold breakage buffer. The mixture was transferred to a bead-beater chamber packed in ice (BioSpec Products, Bartlesville, Okla.). To each 50 mL sample was added 50 g of acid-washed glass beads ([…], Sigma). Cells were disrupted using 12×20 second pulses with 2 min-cooling intervals. Cell debris was removed by centrifugation at 3,000 g for 20 minutes at 4° C., and the supernatant was collected and centrifuged at 100,000 g for 1 hour at 4° C. to pellet the membrane fraction. The pellet was resuspended in 5 mL of ice-cold breakage buffer containing 25% glycerol, homogenized with a Dounce tissue homogenizer and stored at −80° C. in small aliquots.
(§4) 3. Glucan Synthase Assay and Compound Screening
The assay was performed according to Mo et at (Journal of Biological Chemistry, 269, 31267-31274, 1994) and Taft et al. (The Journal of Antibiotics, 47, 1001-1009, 1994), in a 96-well Optiplate (PerkinElmer). To each well was added 3 μL 10× compound stock (in 100% DMSO), or 3 μL of 30 μg/mL caspofungin in 100% DMSO (as positive control), or 3 μL 100% DMSO (as negative control), followed by the addition of appropriate amount of glucan synthase sources (2 μL permeabilized PM503 cells, or 3 μL membrane preparations from either PM503, BWP17, or ND158). The reaction was initiated by adding 25 μL reaction buffer (0.6 mM UDP-Glucose 0.6 nCi [U-^14C]DUP-Glucose (327 mCi/mmol, Amersham Bioscience), 20 μM GTP-γ-S, 25 mM NaF, 7.5 mg/mL BSA, 8% glycerol in 75 mM Tris-HCl, pH 7.5). […]

glucan synthase [2] = target: T2, glucan synthase (Candida albicans, UniProt O13428); assay: β(1,3) glucan synthase assay, C. albicans BWP17 membrane preparation (IC50); assay type: biochemical; details: in vitro fungal enzyme activity assay, read-out: IC50 (μg/mL) Candida albicans (converted)
T2 construct: glucan synthase sources (2 μL permeabilized PM503 cells, or 3 μL membrane preparations from either PM503, BWP17, or ND158); endogenous in cells; host or cells: C. albicans strain BWP17, 100,000 g membrane fraction
T2 sequence (O13428 1-1897): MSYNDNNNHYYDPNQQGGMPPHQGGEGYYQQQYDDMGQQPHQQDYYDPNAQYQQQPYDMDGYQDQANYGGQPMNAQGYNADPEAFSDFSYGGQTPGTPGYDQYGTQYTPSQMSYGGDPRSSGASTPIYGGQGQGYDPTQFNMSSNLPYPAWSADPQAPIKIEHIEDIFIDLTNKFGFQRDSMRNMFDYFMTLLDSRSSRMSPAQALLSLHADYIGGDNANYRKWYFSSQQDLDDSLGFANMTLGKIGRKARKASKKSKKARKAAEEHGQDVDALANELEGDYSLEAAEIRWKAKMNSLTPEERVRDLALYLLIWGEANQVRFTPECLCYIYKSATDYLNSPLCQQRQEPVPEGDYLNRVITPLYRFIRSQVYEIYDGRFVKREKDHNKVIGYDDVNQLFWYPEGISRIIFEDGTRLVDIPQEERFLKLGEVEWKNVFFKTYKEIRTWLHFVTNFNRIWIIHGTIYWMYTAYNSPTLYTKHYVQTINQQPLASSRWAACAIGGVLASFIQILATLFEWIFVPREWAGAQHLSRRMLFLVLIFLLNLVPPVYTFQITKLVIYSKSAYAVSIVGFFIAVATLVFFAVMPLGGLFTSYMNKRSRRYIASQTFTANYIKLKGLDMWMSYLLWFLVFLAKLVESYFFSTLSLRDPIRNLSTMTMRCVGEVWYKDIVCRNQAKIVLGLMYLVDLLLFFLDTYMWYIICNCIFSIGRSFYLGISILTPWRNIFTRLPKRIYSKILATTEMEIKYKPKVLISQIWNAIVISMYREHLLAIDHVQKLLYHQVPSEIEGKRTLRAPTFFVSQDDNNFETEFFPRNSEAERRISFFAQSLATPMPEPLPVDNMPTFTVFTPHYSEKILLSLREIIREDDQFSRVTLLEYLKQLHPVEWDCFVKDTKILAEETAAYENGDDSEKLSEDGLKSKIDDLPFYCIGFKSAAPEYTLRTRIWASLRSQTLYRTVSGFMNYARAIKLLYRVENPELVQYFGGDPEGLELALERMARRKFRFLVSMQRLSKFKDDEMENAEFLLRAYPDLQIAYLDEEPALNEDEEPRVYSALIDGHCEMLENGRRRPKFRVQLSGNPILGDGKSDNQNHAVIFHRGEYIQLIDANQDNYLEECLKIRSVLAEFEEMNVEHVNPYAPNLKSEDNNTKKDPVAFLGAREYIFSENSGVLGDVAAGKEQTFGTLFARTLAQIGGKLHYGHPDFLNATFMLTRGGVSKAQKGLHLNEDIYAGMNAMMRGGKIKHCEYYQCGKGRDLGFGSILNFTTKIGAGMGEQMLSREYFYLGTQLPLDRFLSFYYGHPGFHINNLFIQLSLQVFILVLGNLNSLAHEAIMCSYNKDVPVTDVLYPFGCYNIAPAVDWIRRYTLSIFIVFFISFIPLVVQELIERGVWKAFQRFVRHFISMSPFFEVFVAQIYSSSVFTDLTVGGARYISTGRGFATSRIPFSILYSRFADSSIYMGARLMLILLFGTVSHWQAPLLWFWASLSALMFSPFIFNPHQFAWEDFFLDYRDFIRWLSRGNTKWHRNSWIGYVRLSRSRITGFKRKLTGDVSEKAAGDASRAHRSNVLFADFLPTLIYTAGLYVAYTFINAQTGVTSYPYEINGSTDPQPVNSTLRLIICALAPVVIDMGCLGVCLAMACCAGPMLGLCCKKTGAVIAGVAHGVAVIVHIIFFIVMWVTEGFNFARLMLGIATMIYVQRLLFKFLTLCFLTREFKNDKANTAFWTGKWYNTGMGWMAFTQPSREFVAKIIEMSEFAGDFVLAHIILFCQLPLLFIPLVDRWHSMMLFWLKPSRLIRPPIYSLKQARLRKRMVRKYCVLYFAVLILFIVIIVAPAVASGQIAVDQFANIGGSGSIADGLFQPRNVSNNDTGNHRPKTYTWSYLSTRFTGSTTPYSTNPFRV
T2 sequence (O42825 1-195 partner limits assumed): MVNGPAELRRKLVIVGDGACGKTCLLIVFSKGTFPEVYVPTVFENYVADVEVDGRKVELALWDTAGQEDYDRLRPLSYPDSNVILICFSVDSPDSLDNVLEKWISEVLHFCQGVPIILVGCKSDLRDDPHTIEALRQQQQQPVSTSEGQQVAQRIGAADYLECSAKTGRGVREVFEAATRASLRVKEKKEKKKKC
Method: as §1, §2, §3, §4
The assay was performed according to Mo et at (Journal of Biological Chemistry, 269, 31267-31274, 1994) and Taft et al. (The Journal of Antibiotics, 47, 1001-1009, 1994), in a 96-well Optiplate (PerkinElmer). To each well was added 3 μL 10× compound stock (in 100% DMSO), or 3 μL of 30 μg/mL caspofungin in 100% DMSO (as positive control), or 3 μL 100% DMSO (as negative control), followed by the addition of appropriate amount of glucan synthase sources (2 μL permeabilized PM503 cells, or 3 μL membrane preparations from either PM503, BWP17, or ND158). The reaction was initiated by adding 25 μL reaction buffer (0.6 mM UDP-Glucose 0.6 nCi [U-^14C]DUP-Glucose (327 mCi/mmol, Amersham Bioscience), 20 μM GTP-γ-S, 25 mM NaF, 7.5 mg/mL BSA, 8% glycerol in 75 mM Tris-HCl, pH 7.5). The plate was incubated on a shaker for 1.5 hour at room temperature before being quenched with 250 μL 1% TCA (Trichloroacetic Acid). The quenched reaction was mixed by pipetting, and immediately transferred to a 96-well filter plate (Glass fiber B on 0.65 μm hydrophilic durapore membrane, Millipore) pre-wetted with wash buffer (5% TCA, 60 mM NaPPi). The glucan product was retained on the filter membrane by applying vacuum to the plate using a MultiScreen Resist Vacuum Manifold (Millipore). The filter plate was further washed 4 times with 200 μL wash buffer. The plate was dried at 50° C. for 30 minutes. 100 μL of Microscint-0 (PerkinElmer) was added to each well, and plate was counted in a TopCount NXT plate reader (PerkinElmer).
Dose-response curves were plotted from inhibition data generated. IC50 was determined by fitting the CPM versus the Concentration of the test compound plot with the following equation (4-parameter logistic model, ID Business Solutions XLfit 4.2).

T1 sequence (P06780 1-206): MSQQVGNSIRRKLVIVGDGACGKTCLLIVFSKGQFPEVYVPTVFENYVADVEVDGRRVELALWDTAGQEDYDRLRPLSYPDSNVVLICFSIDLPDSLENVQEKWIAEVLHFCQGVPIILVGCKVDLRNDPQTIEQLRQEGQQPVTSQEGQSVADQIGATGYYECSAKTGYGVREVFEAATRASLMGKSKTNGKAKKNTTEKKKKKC
T1 sequence (P38631 whole entry): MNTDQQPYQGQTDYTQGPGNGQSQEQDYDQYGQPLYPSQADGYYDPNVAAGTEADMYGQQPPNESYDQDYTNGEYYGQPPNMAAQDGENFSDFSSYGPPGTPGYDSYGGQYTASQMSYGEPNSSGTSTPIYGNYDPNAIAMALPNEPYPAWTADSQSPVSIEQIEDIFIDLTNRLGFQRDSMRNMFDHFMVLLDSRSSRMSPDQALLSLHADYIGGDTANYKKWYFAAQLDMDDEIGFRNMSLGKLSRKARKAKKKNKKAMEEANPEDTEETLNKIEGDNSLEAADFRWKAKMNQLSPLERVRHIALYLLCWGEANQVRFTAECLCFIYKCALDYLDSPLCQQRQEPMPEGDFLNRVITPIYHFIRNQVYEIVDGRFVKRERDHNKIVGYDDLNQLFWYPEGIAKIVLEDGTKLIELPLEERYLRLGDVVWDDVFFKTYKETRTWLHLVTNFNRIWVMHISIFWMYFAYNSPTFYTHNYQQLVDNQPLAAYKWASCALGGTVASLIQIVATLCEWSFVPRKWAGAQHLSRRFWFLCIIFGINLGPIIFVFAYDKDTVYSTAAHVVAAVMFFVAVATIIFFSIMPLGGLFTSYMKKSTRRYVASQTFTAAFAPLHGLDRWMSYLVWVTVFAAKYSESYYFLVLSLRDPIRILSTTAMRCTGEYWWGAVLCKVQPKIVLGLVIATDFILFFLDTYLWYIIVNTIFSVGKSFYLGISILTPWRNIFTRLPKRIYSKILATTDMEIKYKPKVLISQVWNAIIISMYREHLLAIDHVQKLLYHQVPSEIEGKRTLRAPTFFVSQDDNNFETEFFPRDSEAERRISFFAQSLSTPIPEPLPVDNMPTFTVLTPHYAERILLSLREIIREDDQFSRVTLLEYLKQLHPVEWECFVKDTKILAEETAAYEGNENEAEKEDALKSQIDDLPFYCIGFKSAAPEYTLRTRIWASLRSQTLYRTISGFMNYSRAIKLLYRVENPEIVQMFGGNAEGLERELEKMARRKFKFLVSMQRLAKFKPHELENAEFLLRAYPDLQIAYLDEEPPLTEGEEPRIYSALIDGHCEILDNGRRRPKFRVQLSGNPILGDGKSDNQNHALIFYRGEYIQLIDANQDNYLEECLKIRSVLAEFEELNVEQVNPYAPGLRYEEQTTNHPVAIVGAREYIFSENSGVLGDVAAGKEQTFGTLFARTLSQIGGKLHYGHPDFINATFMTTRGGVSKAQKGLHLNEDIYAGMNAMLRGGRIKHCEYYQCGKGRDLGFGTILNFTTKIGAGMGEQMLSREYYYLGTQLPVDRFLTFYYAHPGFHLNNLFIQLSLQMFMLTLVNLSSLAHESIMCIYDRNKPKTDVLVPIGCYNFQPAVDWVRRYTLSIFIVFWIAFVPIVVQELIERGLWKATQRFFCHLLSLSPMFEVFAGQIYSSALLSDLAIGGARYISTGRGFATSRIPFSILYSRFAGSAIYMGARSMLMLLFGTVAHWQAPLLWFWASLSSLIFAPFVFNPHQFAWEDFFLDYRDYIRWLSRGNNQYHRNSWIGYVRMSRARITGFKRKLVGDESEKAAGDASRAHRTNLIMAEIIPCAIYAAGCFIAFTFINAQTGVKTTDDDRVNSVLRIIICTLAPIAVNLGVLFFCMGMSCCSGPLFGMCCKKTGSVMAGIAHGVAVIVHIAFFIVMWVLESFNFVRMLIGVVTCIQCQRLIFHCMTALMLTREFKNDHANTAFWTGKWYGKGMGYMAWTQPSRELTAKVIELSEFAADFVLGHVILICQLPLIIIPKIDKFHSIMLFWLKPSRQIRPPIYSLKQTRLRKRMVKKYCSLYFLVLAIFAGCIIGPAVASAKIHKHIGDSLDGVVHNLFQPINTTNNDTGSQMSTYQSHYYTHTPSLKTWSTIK

SMILES	IC50 (glucan synthase [1]) [nM]	IC50 (glucan synthase [2]) [nM]
CC1(COc2c(N3CCN(S(=O)(=O)Cc4ccc5ncoc5c4)CC3)cnn(-c3cc(F)cc(F)c3)c2=O)CC1 [1891Z]	87.5	122
Cc1nc2ccc(CS(=O)(=O)N3CCN(c4cnn(-c5cc(F)cc(F)c5)c(=O)c4OCC4(C)CC4)CC3)cc2o1 [1898Z]	85.4	102
CC1(COc2c(N3CCN(S(=O)(=O)Cc4cc(N)ccc4F)CC3)cnn(-c3cccc(Cl)c3)c2=O)CC1 [1904Z]	107	142
COCCNc1cccc(CS(=O)(=O)N2CCN(c3cnn(-c4cccc(Cl)c4)c(=O)c3OCC3(C)CC3)CC2)c1 [1951Z]	99.6	83
CNc1cccc(CS(=O)(=O)N2CCN(c3cnn(-c4cccc(Cl)c4)c(=O)c3OCC3(C)CC3)CC2)c1 [1969Z]	215	215
O=c1c2c(cnn1-c1cc(F)cc(F)c1)N1CCN(CC1)S(=O)(=O)/C=C/CCCCCCCCO2 [2022Z]	78.6	157
COc1cccc(CS(=O)(=O)N2CCN(c3cnn(-c4cccc(Cl)c4)c(=O)c3OCC3(C)CC3)CC2)c1N [Compound 1574ZI]	87.1	87.1
CC1(COc2c(N3CCN(S(=O)(=O)Cc4ccc(N)c(Cl)c4)CC3)cnn(-c3cc(F)cc(F)c3)c2=O)CC1 [Compound 1574Zo]	51.7	69
CC1(COc2c(N3CCN(S(=O)(=O)Cc4cccc(Cl)c4N)CC3)cnn(-c3cc(F)cc(F)c3)c2=O)CC1 [Compound 1574Zq]	69	138
CC1(COc2c(N3CCN(S(=O)(=O)Cc4cccnc4N)CC3)cnn(-c3cccc(Cl)c3)c2=O)CC1 [Compound 1574Zr]	110	239

Reference: patent US8232274B2, “Pyridazinone derivatives useful as glucan synthase inhibitors” (Albany Molecular Research, Inc., priority 2007, dated 2012)
